The assay has as its target Cell division control protein 42 homolog (Homo sapiens, UniProt P60953). Kind of assay: inhibition of fluorescent GTP binding to Cdc42 wt – biochemical, bead-based multiplex flow cytometry, additional SAR set, SAR follow-up (AID 2022).

Cell division control protein 42 homolog, sequence (P60953 whole entry): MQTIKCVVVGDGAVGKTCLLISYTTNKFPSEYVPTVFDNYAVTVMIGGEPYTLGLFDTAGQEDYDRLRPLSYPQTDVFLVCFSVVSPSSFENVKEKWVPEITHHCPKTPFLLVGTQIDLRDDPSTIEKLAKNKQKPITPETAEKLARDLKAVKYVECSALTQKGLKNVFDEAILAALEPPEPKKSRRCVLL

`O=C1Nc2c(Cl)cccc2C1=C1Nc2ccccc2C1=O` yielded a Ki of 0.01 µM. The same measure for `O=C1N=c2c(F)cccc2=C1c1[nH]c2ccccc2c1NO` [7-fluoro-3-[3-(hydroxyamino)-1H-indol-2-yl]-2-indolone]: 5.93 µM.

The values are drawn from BindingDB's records for doi:10.7270/Q2TB15BF (Nmmlsc, 2009).
